Assay results reported in patent US9355826B2, “Method for imaging mass analysis using physical vapor deposition of platinum nanoparticles” (priority 2012, dated 2016).

Test: IMS visualization of permeation and distribution of acephate in ivy after scattering a grain type agricultural chemical on the soil
Format: in vivo
Conditions: for mass spectrum of collected leaves (peaks originating from acephate): FIG. 32; for distribution of acephate on leaf (peak at m/z=206): FIG. 33; for distribution of acephate in stem (peak at m/z=206): ivy stems collected 4 days later, FIG. 34
Procedure: A grain type pesticide agricultural chemical for horticulture was scattered on soil in which ivy was planted. 4, 8, 11, and 14 days later, leaves at about 30 mm from the soil were collected, and platinum nanoparticles were vapor deposited using a magnetron sputtering device to a thickness of 10 nm, thereby preparing samples. The grain type agricultural chemical that was used contained acephate as an active component.
Each sample was measured by IMS. Also, for the stems that were collected 4 days later, the lower stem and the upper stem, which were respectively close to and far from the root, were measured by IMS under the same conditions.
The measurement conditions of IMS are shown below.
Irradiation laser: Nd:YAG laser (355 nm)
Accelerating voltage: 19 kV
Reflectron voltage: 21 kV
Laser radius: about 100 μm (ultra mode)
Measurement interval: 150 μm

With `COP(=O)(NC(C)=O)SC` (centres unmarked) [acephate] the “mass spectrum of collected leaves (peaks originating from acephate)” value (ivy leaves at about 30 mm from the soil, collected 4 days after scattering on soil) was “only the peaks of the wax layer were observed”, the “distribution of acephate on leaf (peak at m/z=206)” value (from here on “distribution of acephate on leaf”) (ivy leaves collected 4 days later) was “not observed” and the “distribution of acephate on leaf” value (ivy leaves collected 8 days later) was “observed at the base of the leaves”. For the same compound, the “mass spectrum of collected leaves (peaks originating from acephate)” value (ivy leaves collected 11 days after scattering on soil) was “peaks originating from acephate were observed”, the “distribution of acephate on leaf” value (ivy leaves collected 11 days later) was “observed spreading to the tips of the leaves” and the “distribution of acephate on leaf” value (ivy leaves collected 14 days later) was “observed spreading to the tips of the leaves”. For the same compound, the “distribution of acephate in stem (peak at m/z=206)” value (lower stem close to the soil) was “strong peak of acephate was observed in the lower side of the lower stem” and the “distribution of acephate in stem (peak at m/z=206)” value (moving upward along the stem) was “gradual weakening of the acephate peak”.
